Laboratory results published in patent US10702506B2, “Small molecule inhibitors of pendrin ion exchange and pharmaceutical compositions” (THE REGENTS OF THE UNIVERSITY OF CALIFORNIA, priority 2016, dated 2020).

Assays:
[1] = tested on: chronically furosemide-treated mice; experiment: Chronic furosemide treatment model in mice; assay type: in vivo; settings: 10 mg/kg after 8 days furosemide 20 mg/kg twice a day, 3 h urine
Description: Because chronic loop diuretic treatment upregulates renal pendrin expression, which might potentiate the diuretic efficacy of pendrin inhibition, the action of PDSinh-C01 in a chronic furosemide treatment model.
In chronic studies, mice were injected with 20 mg/kg furosemide (ip) twice a day for 8 days and then administered PDSinh-C01 (10 mg/kg) or vehicle at the time of the final furosemide dose. Urine was collected for 3 h as described above.
After 8 days of furosemide treatment, PDSinh-C01 further potentiated the furosemide effect.

pendrin [2] = target: T1, pendrin (Homo sapiens, UniProt O43511); experiment: BCECF assay of Cl−/HCO3− exchange in primary HBE and CFBE cell cultures; assay type: cell-based; design: endogenous in cells; host or cells: primary human bronchial epithelial cultures from non-CF (HBE) and CF (CFBE) donors, with or without IL-13; settings: 25 μM
T1 sequence (O43511 1-780): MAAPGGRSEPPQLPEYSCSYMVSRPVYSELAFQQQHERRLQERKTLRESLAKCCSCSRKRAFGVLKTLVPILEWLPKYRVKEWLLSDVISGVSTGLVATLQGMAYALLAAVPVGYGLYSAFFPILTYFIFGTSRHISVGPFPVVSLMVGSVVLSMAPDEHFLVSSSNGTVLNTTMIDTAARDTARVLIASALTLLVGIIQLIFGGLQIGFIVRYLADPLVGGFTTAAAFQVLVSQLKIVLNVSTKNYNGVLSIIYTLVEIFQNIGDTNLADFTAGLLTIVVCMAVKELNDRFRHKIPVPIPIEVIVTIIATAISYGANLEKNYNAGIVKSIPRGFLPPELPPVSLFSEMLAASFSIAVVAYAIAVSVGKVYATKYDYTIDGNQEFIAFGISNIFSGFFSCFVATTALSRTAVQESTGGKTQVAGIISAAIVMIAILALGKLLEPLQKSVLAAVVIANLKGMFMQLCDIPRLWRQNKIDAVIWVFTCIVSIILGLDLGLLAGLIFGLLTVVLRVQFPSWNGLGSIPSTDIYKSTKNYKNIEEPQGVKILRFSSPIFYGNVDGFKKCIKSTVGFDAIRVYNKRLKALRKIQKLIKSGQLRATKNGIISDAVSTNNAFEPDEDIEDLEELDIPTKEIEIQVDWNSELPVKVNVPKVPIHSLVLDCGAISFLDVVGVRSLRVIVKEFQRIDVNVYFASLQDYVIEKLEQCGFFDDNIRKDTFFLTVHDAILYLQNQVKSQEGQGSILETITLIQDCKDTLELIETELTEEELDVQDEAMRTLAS
Description: Bronchial tissues were obtained from non-CF (without significant airway disease) and CF subjects following lung transplantation, or from lungs donated for transplantation but subsequently found to be unsuitable for that purpose. Non-CF and CF human bronchial epithelial (HBE and CFBE, respectively) cell cultures were grown at an air-liquid interface as described in detail. At 21 days post-seeding, cells typically formed a tight epithelium (RTE>1000 Ωcm^2). In some experiments, the culture medium was supplemented with 10 ng/ml recombinant human IL-13 (Peprotech, Rocky Hill, N.J.) for 7 days starting at day 21 of culture. […] Pendrin transcript levels in human primary cells were measured by Taqman quantitative PCR using the Hs00166504_m1 probe set (ThermoFisher Scientific, Grand Island, N.Y.) at the UCSF Helen Diller Cancer Center Genome Analysis Core. […]
Cytoplasmic pH (pHi) was measured to assay pendrin-mediated Cl^−/HCO3^− exchange in pendrin-expressing FRT cells and primary cell cultures using the pH-sensitive fluorescent probe BCECF. […] BCECF pH-sensitive fluorescence (490 nm excitation, 535 nm emission) was acquired at 0.5 Hz, with control experiments confirming that BCECF pH-insensitive fluorescence was not altered during exchange protocols. In some experiments pHi changes in the absence of HCO3^− were measured using buffers in which NaCl or Na gluconate replaced NaHCO3^−. […]

pendrin [3] = target: T1, pendrin; experiment: BCECF cytoplasmic pH assay of pendrin-mediated Cl−/HCO3− exchange in pendrin-expressing FRT cells; assay type: cell-based; design: expressed in transfected cells
Description: Cytoplasmic pH (pHi) was measured to assay pendrin-mediated Cl^−/HCO3^− exchange in pendrin-expressing FRT cells and primary cell cultures using the pH-sensitive fluorescent probe BCECF. Cells were loaded for 20 min using 10 μM BCECF-AM (Invitrogen, Carlsbad, Calif.) in HCO3^−-containing buffer (in mM: 120 NaCl, 5 KCl, 1 CaCl2), 1 MgSO4, 10 glucose, 5 Hepes, 25 NaHCO3; pH 7.4) at 27° C. in a tissue culture incubator. Cells were washed and transferred to the stage of a TE2000 microscope (Nikon, Melville, N.Y.) equipped with a C9100 EM-CCD (Hamamatsu, San Jose, Calif.), XCite light source (Excelitas, Waltham, Mass.), Nikon 20×N.A. 0.75 S Fluor objective, Uniblitz shutter (Vincent Associates, Rochester, N.Y.), and filters for BCECF fluorescence (Chroma, Bellows Fall, Vt.), where they were purged with 95% O2/5% CO2. […] BCECF pH-sensitive fluorescence (490 nm excitation, 535 nm emission) was acquired at 0.5 Hz, with control experiments confirming that BCECF pH-insensitive fluorescence was not altered during exchange protocols. In some experiments pHi changes in the absence of HCO3^− were measured using buffers in which NaCl or Na gluconate replaced NaHCO3^−. To relate BCECF fluorescence to pH, a calibration curve over the quasi-linear range of BCECF sensitivity (pH 6.6-7.7) was generated as described. […]

SMILES | increase in urine volume [1] [%] | effect on intracellular alkalinization in response to gluconate gradient, IL-13-treated cultures (pendrin [2]; IL-13-treated) | effect on pH changes in response to gluconate gradient, control cultures (pendrin [2]; no added IL-13, 30 min) | inhibition of cytoplasmic alkalinization (Cl−/HCO3− exchange) (pendrin [3]; 25 μM) | IC50 (pendrin [3]; Cl−/HCO3− exchange, read-out: concentration giving fifty percent inhibition of Cl−/HCO3− exchange) [nM]
Cc1n[nH]c(-c2cc(S(=O)(=O)NC3CCCc4ccccc43)c(C)s2)c1C (centres unmarked) [PDSinh-C01] | ~60 | – | – | – | –
Cn1nc(COc2cccc(F)c2)c2c1CCN(C(=O)Nc1ccc(Cl)cc1)C2 [PDSinh-A01] | – | inhibited | not altered | strongly inhibited | ~2500
